Consider 11 compounds from ChEMBL document CHEMBL5614381, “Farnesyl pyrophosphate synthase inhibitors with antiosteoporosis efficacy in ovariectomized rats: A mixed binding approach beyond bisphosphonates” (Eur J Med Chem, 2024).

Experiment [1] deals with T1, Farnesyl pyrophosphate synthase (Homo sapiens, UniProt P14324).
T1 sequence (P14324 whole entry): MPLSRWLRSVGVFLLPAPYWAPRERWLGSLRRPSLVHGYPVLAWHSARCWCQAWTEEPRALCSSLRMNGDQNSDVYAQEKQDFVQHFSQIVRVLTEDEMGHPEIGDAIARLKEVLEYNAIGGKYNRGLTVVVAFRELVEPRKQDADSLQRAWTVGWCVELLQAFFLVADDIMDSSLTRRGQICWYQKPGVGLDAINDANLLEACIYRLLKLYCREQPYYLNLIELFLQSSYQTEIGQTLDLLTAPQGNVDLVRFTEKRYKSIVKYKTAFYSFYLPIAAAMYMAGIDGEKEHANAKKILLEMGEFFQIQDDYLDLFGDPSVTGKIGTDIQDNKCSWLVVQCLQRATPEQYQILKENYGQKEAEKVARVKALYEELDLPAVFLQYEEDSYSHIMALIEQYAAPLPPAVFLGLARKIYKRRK
Briefly: Inhibition of human recombinant FPPS using IPP as substrate preincubated with enzyme for 15 mins followed by substrate addition and measured after 1 hr.

The subject of experiment [2] is Rattus norvegicus. Briefly: Anti-osteoporosis activity against ovariectomized Wistar rat assessed as inhibition of ovariectomy-induced osteoporosis by measuring decrease in bone-specific isoenzyme of alkaline phosphatase level in serum at 10 mg/kg, po administered daily for 8 weeks following bilateral ovariectomy relative to control. Type of experiment: functional. The conditions noted are these: 1344 h.

For experiment [3], the system named is Rattus norvegicus. Briefly: Anti-osteoporosis activity against ovariectomized Wistar rat assessed as inhibition of ovariectomy-induced osteoporosis by measuring increase in bone mineral density at 1 mg/kg, po administered daily for 8 weeks following bilateral ovariectomy. Type of experiment: functional, organism-based.
Experiment [4] relates to Rattus norvegicus. Briefly: Anti-osteoporosis activity against ovariectomized Wistar rat assessed as inhibition of ovariectomy-induced osteoporosis by measuring reduction in serum RANKL/OPG level at 10 mg/kg, po administered daily for 8 weeks following bilateral ovariectomy relative to ovariectomized control. Type of experiment: functional. The note with it: 1344 h.
In experiment [5] the test system is Rattus norvegicus. The experiment can be described thus: Anti-osteoporosis activity against ovariectomized Wistar rat assessed as inhibition of ovariectomy-induced osteoporosis by measuring decrease in urinary phosphate level at 0.1 to 10 mg/kg, po administered daily for 8 weeks following bilateral ovariectomy. The format is functional, organism-based. The conditions noted are these: dose 0.1-10 mg/kg.

Experiment [6] concerns Rattus norvegicus. The experiment can be described thus: Anti-osteoporosis activity against ovariectomized Wistar rat assessed as inhibition of ovariectomy-induced osteoporosis by measuring decrease in serum phosphate level at 1 mg/kg, po administered daily for 8 weeks following bilateral ovariectomy. Type of experiment: functional, organism-based.
Experiment [7] deals with Rattus norvegicus. The experiment can be described thus: Anti-osteoporosis activity against ovariectomized Wistar rat assessed as inhibition of ovariectomy-induced osteoporosis by measuring fold increase in serum osteoclacin level at 1 to 10 mg/kg, po administered daily for 8 weeks following bilateral ovariectomy relative to ovariectomized control. The format is functional. The note with it: dose 1-10 mg/kg.

Experiment [8] deals with Rattus norvegicus. The experiment can be described thus: Anti-osteoporosis activity against ovariectomized Wistar rat assessed as inhibition of ovariectomy-induced osteoporosis by measuring serum estradiol level at 0.1 to 10 mg/kg, po administered daily for 8 weeks following bilateral ovariectomy. The note with it: dose 0.1-10 mg/kg. Type of experiment: functional, organism-based.

Experiment [9] concerns Rattus norvegicus. Briefly: Anti-osteoporosis activity against ovariectomized Wistar rat assessed as inhibition of ovariectomy-induced osteoporosis by measuring increase in bone mineral content at 10 mg/kg, po administered daily for 8 weeks following bilateral ovariectomy. Type of experiment: functional, organism-based.
For experiment [10], the system named is Rattus norvegicus. The experiment can be described thus: Anti-osteoporosis activity against ovariectomized Wistar rat assessed as inhibition of ovariectomy-induced osteoporosis by measuring reduction in serum RANKL level at 0.1 to 10 mg/kg, po administered daily for 8 weeks following bilateral ovariectomy. The conditions noted are these: dose 0.1-10 mg/kg. Type of experiment: functional, organism-based.

Experiment [11] deals with Rattus norvegicus. The experiment can be described thus: Anti-osteoporosis activity against ovariectomized Wistar rat assessed as inhibition of ovariectomy-induced osteoporosis by measuring decrease in urinary calcium level at 1 mg/kg, po administered daily for 8 weeks following bilateral ovariectomy. Type of experiment: functional, organism-based.
Experiment [12] concerns Rattus norvegicus. Briefly: Anti-osteoporosis activity against ovariectomized Wistar rat assessed as inhibition of ovariectomy-induced osteoporosis by measuring increase in serum OPG level at 10 mg/kg, po administered daily for 8 weeks following bilateral ovariectomy relative to ovariectomized control. Type of experiment: functional. The arrangement: scale not given: the % may be the effect or the level left.

In experiment [13] the test system is Rattus norvegicus. Briefly: Anti-osteoporosis activity against ovariectomized Wistar rat assessed as inhibition of ovariectomy-induced osteoporosis by measuring decrease in urinary calcium level at 7.5 ug/kg, ip administered once a week for 8 weeks following bilateral ovariectomy. The format is functional, organism-based. The note with it: dose 7.5 µg/kg.
The test system of experiment [14] is Rattus norvegicus. The experiment can be described thus: Anti-osteoporosis activity against ovariectomized Wistar rat assessed as inhibition of ovariectomy-induced osteoporosis by measuring reduction in serum RANKL level at 7.5 ug/kg, ip administered once a week for 8 weeks following bilateral ovariectomy. Type of experiment: functional, organism-based. The note with it: dose 7.5 µg/kg.

The subject of experiment [15] is Rattus norvegicus. Briefly: Anti-osteoporosis activity against ovariectomized Wistar rat assessed as inhibition of ovariectomy-induced osteoporosis by measuring decrease in bone-specific isoenzyme of alkaline phosphatase level in serum at 7.5 ug/kg, ip administered once a week for 8 weeks following bilateral ovariectomy. The conditions noted are these: dose 7.5 µg/kg. Type of experiment: functional, organism-based.

For experiment [16], the system named is Rattus norvegicus. The experiment can be described thus: Anti-osteoporosis activity against ovariectomized Wistar rat assessed as inhibition of ovariectomy-induced osteoporosis by measuring decrease in serum calcium level at 7.5 ug/kg, ip administered once a week for 8 weeks following bilateral ovariectomy. The format is functional, organism-based. The conditions noted are these: dose 7.5 µg/kg.

Experiment [17] concerns Rattus norvegicus. The experiment can be described thus: Anti-osteoporosis activity against ovariectomized Wistar rat assessed as inhibition of ovariectomy-induced osteoporosis by measuring decrease in serum phosphate level at 7.5 ug/kg, ip administered once a week for 8 weeks following bilateral ovariectomy. The note with it: dose 7.5 µg/kg. Type of experiment: functional, organism-based.

Experiment [18] has as its system Rattus norvegicus. Briefly: Anti-osteoporosis activity against ovariectomized Wistar rat assessed as inhibition of ovariectomy-induced osteoporosis by measuring decrease in urinary phosphate level at 7.5 ug/kg, ip administered once a week for 8 weeks following bilateral ovariectomy. The format is functional, organism-based. The conditions noted are these: dose 7.5 µg/kg.

Experiment [19] deals with Rattus norvegicus. The experiment can be described thus: Anti-osteoporosis activity against ovariectomized Wistar rat assessed as inhibition of ovariectomy-induced osteoporosis by measuring serum estradiol level at 7.5 ug/kg, ip administered once a week for 8 weeks following bilateral ovariectomy. Type of experiment: functional, organism-based. The conditions noted are these: dose 7.5 µg/kg.

Experiment [20] relates to Rattus norvegicus. The experiment can be described thus: Anti-osteoporosis activity against ovariectomized Wistar rat assessed as inhibition of ovariectomy-induced osteoporosis by measuring reduction in serum RANKL/OPG level at 7.5 ug/kg, ip administered once a week for 8 weeks following bilateral ovariectomy relative to ovariectomized control. The format is functional. The conditions noted are these: 1344 h, dose 7.5 µg/kg.

In experiment [21] the test system is Rattus norvegicus. The experiment can be described thus: Anti-osteoporosis activity against ovariectomized Wistar rat assessed as inhibition of ovariectomy-induced osteoporosis by measuring increase in serum OPG level at 7.5 ug/kg, ip administered once a week for 8 weeks following bilateral ovariectomy relative to ovariectomized control. Type of experiment: functional. Also noted: scale not given: the % may be the effect or the level left. The note with it: dose 7.5 µg/kg.

Experiment [22] relates to Rattus norvegicus. Briefly: Anti-osteoporosis activity against ovariectomized Wistar rat assessed as inhibition of ovariectomy-induced osteoporosis by measuring increase in serum osteoclacin level at 7.5 ug/kg, ip administered once a week for 8 weeks following bilateral ovariectomy relative to ovariectomized control. Type of experiment: functional. The arrangement: scale not given: the % may be the effect or the level left. The note with it: dose 7.5 µg/kg.

Calls of active or inactive are those of the source. The calls are words filed in the database; no cut-off is given here.

As to `COc1cc(C(O)P(=O)(N(C)C)N(C)C)ccc1OCCOc1ccc(C(O)P(=O)(N(C)C)N(C)C)cc1OC` (stereo unspecified), in [1], the IC50 (commonly the midpoint of a concentration-inhibition curve) was 5.54 µM.
Take `COc1cc(C=O)ccc1OCCOc1ccc(C=O)cc1OC`: the IC50 in experiment [1] was 12.6 µM.
For the compound `COc1cc(/C=C/C(C)=O)ccc1OCCOc1ccc(/C=C/C(C)=O)cc1OC`, the inhibition in vivo (as a rule, the change of the read-out against control, counted positive when it falls) at 10 mg/kg stood at 33% in the experiment with Rattus norvegicus [2] and 33.3% in the experiment on Rattus norvegicus [4]. Also, the result in the experiment with Rattus norvegicus [3], in the experiment with Rattus norvegicus [5], with Rattus norvegicus [6], with Rattus norvegicus [9] and in the experiment on Rattus norvegicus [11] was Active. In addition, the “fold change (FC)” value with Rattus norvegicus [7] came to 2. Besides, the outcome in the experiment on Rattus norvegicus [8] and in the experiment with Rattus norvegicus [10] was inactive. In addition, the IC50 in [1] came to 1.11 µM. Also, the Activity with Rattus norvegicus [12] turned out to be 29%.
Take `COC(=O)/C=C/c1ccc(OCCOc2ccc(/C=C/C(=O)OC)cc2OC)c(OC)c1`: the IC50 in experiment [1] is 1.24 µM.
On the same count and under the same terms, as for `CCOC(=O)/C=C/c1ccc(OCCOc2ccc(/C=C/C(=O)OCC)cc2OC)c(OC)c1`, the figure is 5.98 µM; as for `COc1cc(/C=C/C#N)ccc1OCCOc1ccc(/C=C/C#N)cc1OC`, 3.22 µM.
Regarding `O=P(O)(O)C(O)(Cn1ccnc1)P(=O)(O)O` [ZOLEDRONIC ACID ANHYDROUS], the result with Rattus norvegicus [13], in the experiment on Rattus norvegicus [14] and with Rattus norvegicus [19] was inactive. The result in the experiment with Rattus norvegicus [15], in the experiment with Rattus norvegicus [16], in the experiment with Rattus norvegicus [17] and in the experiment with Rattus norvegicus [18] was Active. In addition, the inhibition in vivo at 0.0075 mg/kg with Rattus norvegicus [20] stood at 38%. Also, the Activity was 46% in the experiment on Rattus norvegicus [21] and 174% in the experiment with Rattus norvegicus [22].
With `CCN(CC)P(=O)(C(O)c1ccc(OCCOc2ccc(C(O)P(=O)(N(CC)CC)N(CC)CC)cc2OC)c(OC)c1)N(CC)CC` (stereo unspecified), in experiment [1], the IC50 turned out to be 2.47 µM.
The same measure, in the same setting: the value for `COc1cc(C2SP(=S)(Sc3ccccc3)S2)ccc1OCCOc1ccc(C2SP(=S)(Sc3ccccc3)S2)cc1OC` (stereo unspecified) was 3.37 µM; that for `COc1cc(C=S)ccc1OCCOc1ccc(C=S)cc1OC` was 22.7 µM; that for `COc1cc(C(O)P(=O)(OC)OC)ccc1OCCOc1ccc(C(O)P(=O)(OC)OC)cc1OC` (stereo unspecified) was 21.4 µM.
